Entries after “also recorded” stand apart in the source; their conditions may differ. Non-standard residues stand in square brackets, D forms with d. Residues, ends and D or L forms follow the SMILES beside them. Dmt = Cc1cc(O)cc(C)c1C[C@H](N)C(=O)O; Tic = O=C(O)[C@@H]1Cc2ccccc2CN1
Assays:
δ receptors = δ receptors (Mus musculus, UniProt P32300)
Method: The in vitro pharmacological assays were undertaken using published methods (32) based on the organ bath technique of Kosterlitz and Watt (50). For μ receptors, a 2-3 cm segment of guinea-pig ileum (GPI) mounted in a 20 mL organ bath and for δ receptors, a single mouse vas deferens (MVD) was obtained from a mature animal.

μ receptor = target: T1, μ receptor (Rattus norvegicus, UniProt P33535); assay: μ receptor binding, rat membrane synaptosomes, [3H]DAGO; settings: rat synaptosomes (P2), mean ± SEM
T1 construct: Rat membrane synaptosome preparations (P2 fraction) were prepared as detailed previously; from tissue; host or cells: rat synaptosomal membranes (P2 fraction)
Method: (§1) Rat membrane synaptosome preparations (P2 fraction) were prepared as detailed previously, which included a preincubation step to reduce the presence of endogenous ligands and binding of G proteins (33,40). […] Samples were rapidly filtered through wetted glass fiber filters and thoroughly washed with 6 mL (3×2 mL) ice-cold 50 mM Tris-HCl, pH 7.5, containing 0.01-0.1% chicken egg albumin or bovine serum albumin. […] The filters were dried at 70° C. and the radioactivity determined after an overnight incubation period in CytoScint to maximize the radioactivity detected and reduce variability between samples. The IC50 values were converted to affinity constants (Ki) according to Cheng and Prusoff (48).

mice = assay: Tail flick test (TFT), analgesia and morphine antagonism in mice; assay type: in vivo, CD-1 mice
Method: Animal procedures were conducted under protocols approved by the Animal Use and Care Committee, NIEHS, an AALAC accredited facility. Tail flick test (TFT) used a radiant heat source on the tail of Fisher 344 rats or CD-1 mice (52). The response was standardized by the subcutaneous (sc) injection of 5 mg morphine sulfate/kilogram (Kg) body weight or 0.1-0.25 mg morphine/Kg body weight by iv injection; peptides were injected in 100 μL volume in sterile saline. […] Intrathecal injection of peptides in mice used the method of Hylden and Wilcox (53). A base-line and cut-off 10 sec were determined in the TFT with naive and morphine-dosed animals, respectively,to prevent damage to the tail. 1 μg to 10 mg per kilogram of animal was used for iv, icv or sc; higher doses in the mg range were used for sc injection.

δ receptor = target: T2, δ receptor (Rattus norvegicus, UniProt P33533); assay: Multi-site (one- vs two-site) δ receptor binding analysis
T2 construct: Rat membrane synaptosome preparations (P2 fraction) were prepared as detailed previously; from tissue; host or cells: rat synaptosomal membranes (P2 fraction)
Method: as §1
Multi-site binding analyses, based on stringent statistical methods, were performed as described in Bryant et al. (41) and Attila et al. (49). Receptor assays were conducted in triplicate with 25-35 graded concentrations of peptide; the resulting curves were both individually assessed and combined from several distinct assays, and analyzed using Prism™ (v. 1.02, GraphPad, San Diego, Calif.).

Chain of δ receptors (P32300 whole entry): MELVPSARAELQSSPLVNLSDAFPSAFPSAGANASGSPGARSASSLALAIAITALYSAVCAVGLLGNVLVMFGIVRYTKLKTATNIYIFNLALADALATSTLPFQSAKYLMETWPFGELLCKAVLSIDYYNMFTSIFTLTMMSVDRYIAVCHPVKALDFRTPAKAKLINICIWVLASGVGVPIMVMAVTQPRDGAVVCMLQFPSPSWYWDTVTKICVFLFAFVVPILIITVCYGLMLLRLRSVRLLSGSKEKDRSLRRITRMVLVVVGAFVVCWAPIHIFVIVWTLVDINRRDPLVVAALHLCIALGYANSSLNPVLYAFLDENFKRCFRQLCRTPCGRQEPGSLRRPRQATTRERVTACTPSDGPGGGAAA
T2 sequence (P33533 whole entry): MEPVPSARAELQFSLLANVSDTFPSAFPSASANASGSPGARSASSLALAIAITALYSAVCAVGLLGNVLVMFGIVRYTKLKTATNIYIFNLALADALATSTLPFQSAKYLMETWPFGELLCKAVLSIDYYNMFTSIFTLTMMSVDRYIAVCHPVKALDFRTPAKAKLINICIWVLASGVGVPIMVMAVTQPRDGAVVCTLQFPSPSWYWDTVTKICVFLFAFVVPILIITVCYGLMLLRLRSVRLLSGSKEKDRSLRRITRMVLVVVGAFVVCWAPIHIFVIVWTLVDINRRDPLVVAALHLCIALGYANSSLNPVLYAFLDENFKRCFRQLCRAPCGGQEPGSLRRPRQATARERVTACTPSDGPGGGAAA
T1 sequence (P33535 whole entry): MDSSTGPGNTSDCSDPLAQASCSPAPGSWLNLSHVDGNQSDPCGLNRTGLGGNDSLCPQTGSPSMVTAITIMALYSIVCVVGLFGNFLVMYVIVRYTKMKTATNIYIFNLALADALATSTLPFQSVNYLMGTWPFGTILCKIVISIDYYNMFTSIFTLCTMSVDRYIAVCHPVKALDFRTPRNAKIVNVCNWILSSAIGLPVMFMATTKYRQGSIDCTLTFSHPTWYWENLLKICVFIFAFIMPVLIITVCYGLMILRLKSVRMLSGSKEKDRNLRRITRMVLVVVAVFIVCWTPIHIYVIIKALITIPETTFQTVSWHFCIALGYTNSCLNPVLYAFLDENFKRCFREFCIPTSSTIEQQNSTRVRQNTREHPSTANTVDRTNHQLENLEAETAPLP

Cc1cc(O)cc(C)c1C[C@H](N)C(=O)N1Cc2ccccc2C[C@H]1C(=O)O [Peptide 1, Dmt-Tic-OH] (H-[Dmt]-[Tic]-OH; N-terminus assumed)
Kb (δ receptors): 6.31 nM | MVD (δ receptors; concentration equivalent of pA2, against deltorphin C): 5.7 nM | antagonist properties in MVD bioassay (δ receptors; in vitro mouse vas deferens): antagonist properties | Ki (μ receptor): 3320 nM | analgesia in tail flick test (mice; iv, 100 ug/mouse where stated): no demonstratable analgesia; also recorded: no demonstrable analgesia | block of the effect of morphine in tail flick test (mice; morphine injected iv (0.25 mg/kg), peptide 100 ug/mouse iv): completely blocked | δ receptor binding model fitted (δ receptor; one-site vs two-site): one-site binding model | Percent low-affinity sites (δ receptor; two-site δ receptor fit): 30.7 ± 91.5%
